Data reported in patent US10927123B2, “Modulators of the beta-3 adrenergic receptor useful for the treatment or prevention of disorders related thereto” (Arena Pharmaceuticals, Inc., priority 2016, dated 2021).

Each compound was assayed against Beta-3 Adrenergic Receptor (Homo sapiens (Human), UniProt P13945) (assay: HTRF cAMP antagonist assay (IC50 determination)). Conditions: CHO-K1 cells stably expressing recombinant receptor; antagonism of isoproterenol at EC90; cAMP readout.
Assay type: cell-based
Outline: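 Antagonist mode: isoproterenol at its predetermined EC90 added after compound to recombinant CHO-K1 cells in IBMX-containing PBS, 1 h, room temperature. Compounds tested as 5-fold, 10-point dilutions, top final typically 10 or 100 μM. HTRF signal converted to cAMP via standard curve, giving IC50.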

Beta-3 Adrenergic Receptor, sequence (P13945 whole entry, species assumed): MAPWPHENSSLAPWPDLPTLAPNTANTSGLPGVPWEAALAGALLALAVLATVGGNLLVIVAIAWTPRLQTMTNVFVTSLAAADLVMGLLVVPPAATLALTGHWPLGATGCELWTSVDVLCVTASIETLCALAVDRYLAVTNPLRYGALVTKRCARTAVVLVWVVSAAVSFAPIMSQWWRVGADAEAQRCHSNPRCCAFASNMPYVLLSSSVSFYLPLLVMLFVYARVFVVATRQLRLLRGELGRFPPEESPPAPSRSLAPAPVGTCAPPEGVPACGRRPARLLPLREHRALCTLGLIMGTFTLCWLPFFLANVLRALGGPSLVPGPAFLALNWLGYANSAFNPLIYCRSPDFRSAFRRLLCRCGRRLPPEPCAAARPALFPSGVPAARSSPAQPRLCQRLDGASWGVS

IC50 [nM] | SMILES
41.8 | CCOc1ccc(-c2ccc(C3(N)CC3)cc2)cc1S(=O)(=O)N1CCC2(CC1)C[C@@H](NC[C@H](O)COc1cccc(S(=O)(=O)C3CC3)c1)CO2 [Compound 254, (S)-1-((R)-8-(4′-(1-aminocyclopropyl)-4-ethoxybiphenyl-3-ylsulfonyl)-1-oxa-8-azaspiro[4.5]decan-3-ylamino)-3-(3-(cyclopropylsulfonyl)phenoxy)propan-2-ol]
27.9 | COc1ccc(S(=O)(=O)N2CCC3(CC2)C[C@@H](NC[C@H](O)COc2cccc(S(=O)(=O)C4CC4)c2)CO3)cc1-c1ccc(C2(N)CC2)cc1 [Compound 255, (S)-1-((R)-8-(4′-(1-aminocyclopropyl)-6-methoxybiphenyl-3-ylsulfonyl)-1-oxa-8-azaspiro[4.5]decan-3-ylamino)-3-(3-(cyclopropylsulfonyl)phenoxy)propan-2-ol]
32.6 | CCOc1ccc(-c2ccc(C3(N)CC3)cc2)cc1S(=O)(=O)N1CCC2(CC1)C[C@H](NC[C@H](O)COc1cccc(S(=O)(=O)CC)c1)CO2 [Compound 256, (S)-1-((S)-8-(4′-(1-aminocyclopropyl)-4-ethoxybiphenyl-3-ylsulfonyl)-1-oxa-8-azaspiro[4.5]decan-3-ylamino)-3-(3-(ethylsulfonyl)phenoxy)propan-2-ol]
37.8 | CCOc1ccc(-c2ccc(C3(N)CC3)cc2)cc1S(=O)(=O)N1CCC2(CC1)C[C@@H](NC[C@H](O)COc1cccc(S(=O)(=O)CC)c1)CO2 [Compound 257, (S)-1-((R)-8-(4′-(1-aminocyclopropyl)-4-ethoxybiphenyl-3-ylsulfonyl)-1-oxa-8-azaspiro[4.5]decan-3-ylamino)-3-(3-(ethylsulfonyl)phenoxy)propan-2-ol]
27.7 | CCS(=O)(=O)c1cccc(OC[C@@H](O)CN[C@H]2COC3(CCN(S(=O)(=O)c4ccc(OC)c(-c5ccc(C6(N)CC6)cc5)c4)CC3)C2)c1 [Compound 258, (S)-1-((R)-8-(4′-(1-aminocyclopropyl)-6-methoxybiphenyl-3-ylsulfonyl)-1-oxa-8-azaspiro[4.5]decan-3-ylamino)-3-(3-(ethylsulfonyl)phenoxy)propan-2-ol]
158 | Cc1nc2c(cc1S(=O)(=O)N1CCC3(CC1)C[C@@H](NC[C@H](O)COc1cccc(S(=O)(=O)C4CC4)c1)CO3)N(C)CCO2 [Compound 259, (S)-1-(3-(cyclopropylsulfonyl)phenoxy)-3-((R)-8-(1,6-dimethyl-2,3-dihydro-1H-pyrido[2,3-b][1,4]oxazin-7-ylsulfonyl)-1-oxa-8-azaspiro[4.5]decan-3-ylamino)propan-2-ol]
178 | Cc1c(S(=O)(=O)N2CCC3(CC2)C[C@@H](NC[C@H](O)COc2cccc(S(=O)(=O)C4(CO)CC4)c2)CO3)cnc2c1N(C)CCO2 [Compound 260, (S)-1-((R)-8-(1,8-dimethyl-2,3-dihydro-1H-pyrido[2,3-b][1,4]oxazin-7-ylsulfonyl)-1-oxa-8-azaspiro[4.5]decan-3-ylamino)-3-(3-(1-(hydroxymethyl)cyclopropylsulfonyl)phenoxy)propan-2-ol]
38.8 | CCS(=O)(=O)c1cccc(OC[C@@H](O)CN[C@@H]2COC3(CCN(S(=O)(=O)c4ccc(OC)c(-c5ccc(C6(N)CC6)cc5)c4)CC3)C2)c1 [Compound 261, (S)-1-((S)-8-(4′-(1-aminocyclopropyl)-6-methoxybiphenyl-3-ylsulfonyl)-1-oxa-8-azaspiro[4.5]decan-3-ylamino)-3-(3-(ethylsulfonyl)phenoxy)propan-2-ol]
982 | CC(C)(C)NCc1ccc(-c2cccc(S(=O)(=O)N3CCC4(CC3)C[C@@H](NC[C@H](O)COc3cccc(S(=O)(=O)C5(CO)CC5)c3)CO4)c2)cc1 [Compound 262, (S)-1-((R)-8-(4′-((tert-butylamino)methyl)biphenyl-3-ylsulfonyl)-1-oxa-8-azaspiro[4.5]decan-3-ylamino)-3-(3-(1-(hydroxymethyl)cyclopropylsulfonyl)phenoxy)propan-2-ol]
755 | CCC(C)(C)NCc1ccc(-c2cccc(S(=O)(=O)N3CCC4(CC3)C[C@@H](NC[C@H](O)COc3cccc(S(=O)(=O)C5(CO)CC5)c3)CO4)c2)cc1 [Compound 263, (S)-1-(3-(1-(hydroxymethyl)cyclopropylsulfonyl)phenoxy)-3-((R)-8-(4′-((tert-pentylamino)methyl)biphenyl-3-ylsulfonyl)-1-oxa-8-azaspiro[4.5]decan-3-ylamino)propan-2-ol]
980 | O=S(=O)(c1cccc(-c2ccc(CNCC(F)(F)F)cc2)c1)N1CCC2(CC1)C[C@@H](NC[C@H](O)COc1cccc(S(=O)(=O)C3(CO)CC3)c1)CO2 [Compound 264, (S)-1-(3-(1-(hydroxymethyl)cyclopropylsulfonyl)phenoxy)-3-((R)-8-(4′-((2,2,2-trifluoroethylamino)methyl)biphenyl-3-ylsulfonyl)-1-oxa-8-azaspiro[4.5]decan-3-ylamino)propan-2-ol]
374 | O=S(=O)(c1cccc(-c2ccc(CN3CCC3)cc2)c1)N1CCC2(CC1)C[C@@H](NC[C@H](O)COc1cccc(S(=O)(=O)C3(CO)CC3)c1)CO2 [Compound 265, (S)-1-((R)-8-(4′-(azetidin-1-ylmethyl)biphenyl-3-ylsulfonyl)-1-oxa-8-azaspiro[4.5]decan-3-ylamino)-3-(3-(1-(hydroxymethyl)cyclopropylsulfonyl)phenoxy)propan-2-ol]
1290 | O=S(=O)(c1cccc(-c2ccc(CN3CCOCC3)cc2)c1)N1CCC2(CC1)C[C@@H](NC[C@H](O)COc1cccc(S(=O)(=O)C3(CO)CC3)c1)CO2 [Compound 266, (S)-1-(3-(1-(hydroxymethyl)cyclopropylsulfonyl)phenoxy)-3-((R)-8-(4′-(morpholinomethyl)biphenyl-3-ylsulfonyl)-1-oxa-8-azaspiro[4.5]decan-3-ylamino)propan-2-ol]
442 | COCCNCc1ccc(-c2cccc(S(=O)(=O)N3CCC4(CC3)C[C@@H](NC[C@H](O)COc3cccc(S(=O)(=O)C5(CO)CC5)c3)CO4)c2)cc1 [Compound 267, (S)-1-(3-(1-(hydroxymethyl)cyclopropylsulfonyl)phenoxy)-3-((R)-8-(4′-((2-methoxyethylamino)methyl)biphenyl-3-ylsulfonyl)-1-oxa-8-azaspiro[4.5]decan-3-ylamino)propan-2-ol]
138 | CCNCc1ccc(-c2cccc(S(=O)(=O)N3CCC4(CC3)C[C@@H](NC[C@H](O)COc3cccc(S(=O)(=O)C5(CO)CC5)c3)CO4)c2)cc1 [Compound 268, (S)-1-((R)-8-(4′-((ethylamino)methyl)biphenyl-3-ylsulfonyl)-1-oxa-8-azaspiro[4.5]decan-3-ylamino)-3-(3-(1-(hydroxymethyl)cyclopropylsulfonyl)phenoxy)propan-2-ol]
400 | O=S(=O)(c1cccc(-c2ccc(CNC3CCC3)cc2)c1)N1CCC2(CC1)C[C@@H](NC[C@H](O)COc1cccc(S(=O)(=O)C3(CO)CC3)c1)CO2 [Compound 269, (S)-1-((R)-8-(4′-((cyclobutylamino)methyl)biphenyl-3-ylsulfonyl)-1-oxa-8-azaspiro[4.5]decan-3-ylamino)-3-(3-(1-(hydroxymethyl)cyclopropylsulfonyl)phenoxy)propan-2-ol]
92.3 | NCCNCc1ccc(-c2cccc(S(=O)(=O)N3CCC4(CC3)C[C@@H](NC[C@H](O)COc3cccc(S(=O)(=O)C5(CO)CC5)c3)CO4)c2)cc1 [Compound 270, (S)-1-((R)-8-(4′-((2-aminoethylamino)methyl)biphenyl-3-ylsulfonyl)-1-oxa-8-azaspiro[4.5]decan-3-ylamino)-3-(3-(1-(hydroxymethyl)cyclopropylsulfonyl)phenoxy)propan-2-ol]
206 | NCCCNCc1ccc(-c2cccc(S(=O)(=O)N3CCC4(CC3)C[C@@H](NC[C@H](O)COc3cccc(S(=O)(=O)C5(CO)CC5)c3)CO4)c2)cc1 [Compound 271, (S)-1-((R)-8-(4′-((3-aminopropylamino)methyl)biphenyl-3-ylsulfonyl)-1-oxa-8-azaspiro[4.5]decan-3-ylamino)-3-(3-(1-(hydroxymethyl)cyclopropylsulfonyl)phenoxy)propan-2-ol]
566 | CC(C)CNCc1ccc(-c2cccc(S(=O)(=O)N3CCC4(CC3)C[C@@H](NC[C@H](O)COc3cccc(S(=O)(=O)C5(CO)CC5)c3)CO4)c2)cc1 [Compound 272, (S)-1-(3-(1-(hydroxymethyl)cyclopropylsulfonyl)phenoxy)-3-((R)-8-(4′-((isobutylamino)methyl)biphenyl-3-ylsulfonyl)-1-oxa-8-azaspiro[4.5]decan-3-ylamino)propan-2-ol]
38.4 | C[C@H]1CN(C)c2cc(S(=O)(=O)N3CCC4(CC3)C[C@@H](NC[C@H](O)COc3cccc(S(=O)(=O)C5CC5)c3)CO4)cnc2O1 [Compound 274, (S)-1-(3-(cyclopropylsulfonyl)phenoxy)-3-((R)-8-((S)-1,3-dimethyl-2,3-dihydro-1H-pyrido[2,3-b][1,4]oxazin-7-ylsulfonyl)-1-oxa-8-azaspiro[4.5]decan-3-ylamino)propan-2-ol]
62.3 | Cc1c(S(=O)(=O)N2CCC3(CC2)C[C@@H](NC[C@H](O)COc2cccc(S(=O)(=O)C4CC4)c2)CO3)cnc2c1N(C)CCO2 [Compound 275, (S)-1-(3-(cyclopropylsulfonyl)phenoxy)-3-((R)-8-(1,8-dimethyl-2,3-dihydro-1H-pyrido[2,3-b][1,4]oxazin-7-ylsulfonyl)-1-oxa-8-azaspiro[4.5]decan-3-ylamino)propan-2-ol]
1810 | Cc1c(S(=O)(=O)N2CCC3(CC2)C[C@@H](NC[C@H](O)COc2cccc(S(=O)(=O)CC(N)=O)c2)CO3)cnc2c1N(C)CCO2 [Compound 276, 2-(3-((S)-3-((R)-8-(1,8-dimethyl-2,3-dihydro-1H-pyrido[2,3-b][1,4]oxazin-7-ylsulfonyl)-1-oxa-8-azaspiro[4.5]decan-3-ylamino)-2-hydroxypropoxy)phenylsulfonyl)acetamide]
